From ChEMBL document CHEMBL4196008, “Structure activity relationships, multidrug resistance reversal and selectivity of heteroarylphenyl ABCG2 inhibitors” (Eur J Med Chem, 2018)

What was measured:
[1] = biological target: T1, Broad substrate specificity ATP-binding cassette transporter ABCG2 (Homo sapiens, UniProt Q9UNQ0); assay: Inhibition of C-terminal GFP-fused human ABCG2 expressed in MDCK2 cells up to 10 uM preincubated for 30 mins followed by Hoechst 33342 addition and measured every 60 secs for 120 mins by Hoechst 33342 accumulation assay; type: cell-based; settings: 2 h
T1 sequence (Q9UNQ0 whole entry): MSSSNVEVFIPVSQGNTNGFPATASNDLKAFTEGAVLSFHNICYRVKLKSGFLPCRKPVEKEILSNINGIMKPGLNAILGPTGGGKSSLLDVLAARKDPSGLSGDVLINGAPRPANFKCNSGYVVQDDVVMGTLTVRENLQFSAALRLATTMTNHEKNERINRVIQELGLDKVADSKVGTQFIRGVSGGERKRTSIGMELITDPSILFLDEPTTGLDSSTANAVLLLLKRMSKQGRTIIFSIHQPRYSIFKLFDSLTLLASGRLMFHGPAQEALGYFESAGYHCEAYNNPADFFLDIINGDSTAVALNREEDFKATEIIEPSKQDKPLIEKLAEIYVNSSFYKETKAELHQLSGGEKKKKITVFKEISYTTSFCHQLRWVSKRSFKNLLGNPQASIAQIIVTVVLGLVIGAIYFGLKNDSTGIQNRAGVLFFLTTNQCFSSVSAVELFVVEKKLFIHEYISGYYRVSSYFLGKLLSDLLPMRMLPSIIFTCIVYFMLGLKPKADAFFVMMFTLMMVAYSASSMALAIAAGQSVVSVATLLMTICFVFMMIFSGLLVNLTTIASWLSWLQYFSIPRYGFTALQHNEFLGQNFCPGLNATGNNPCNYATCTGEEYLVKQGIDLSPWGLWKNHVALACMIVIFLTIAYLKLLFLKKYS

[2] = Resistance factor, ratio of SN-38 GI50 for MDCK2 cells expressing C-terminal GFP-fused human ABCG2 in presence of 0.0316 uM test compound to SN-38 GI50 for MDCK2 cells in absence of test compound; type: functional
ABCG2 [3] = assay: Therapeutic index, ratio of GI50 for MDCK2 cells expressing C-terminal GFP-fused human ABCG2 to IC50 for C-terminal GFP-fused human ABCG2 expressed in MDCK2 BCRP cells; type: toxicity, cell-based; settings: dog, read-out: TI
[4] = Resistance factor, ratio of SN-38 GI50 for MDCK2 cells expressing C-terminal GFP-fused human ABCG2 in presence of 0.0100 uM test compound to SN-38 GI50 for MDCK2 cells in absence of test compound; type: functional
[5] = Growth inhibition of MDCK2 cells after 72 hrs by MTT assay; type: cell-based, Canis lupus familiaris, MDCK-II; settings: dog
[6] = biological target: T1, Broad substrate specificity ATP-binding cassette transporter ABCG2
Description: Inhibition of C-terminal GFP-fused human ABCG2 expressed in MDCK2 cells preincubated for 30 mins followed by Hoechst 33342 addition and measured every 60 secs for 120 mins by Hoechst 33342 accumulation assay

ABCG2 [7] = biological target: T2, ABCG2 (Homo sapiens, UniProt Q9UNQ0); assay: Inhibition of C-terminal GFP-fused human ABCG2 expressed in MDCK2 cells up to 10 uM preincubated for 30 mins followed by Hoechst 33342 addition and measured every 60 secs for 120 mins by Hoechst 33342 accumulation assay relative to XR9577; type: cell-based; settings: MDCK2 cells expressing C-terminal GFP-fused human ABCG2, probe Hoechst 33342, read-out: Imax
T2 sequence (Q9UNQ0 whole entry): T1 sequence (Q9UNQ0 whole entry)

[8] = Resistance factor, ratio of SN-38 GI50 for MDCK2 cells expressing C-terminal GFP-fused human ABCG2 in presence of 0.100 uM test compound to SN-38 GI50 for MDCK2 cells in absence of test compound; type: functional
[9] = Resistance factor, ratio of SN-38 GI50 for MDCK2 cells expressing C-terminal GFP-fused human ABCG2 in presence of 0.316 uM test compound to SN-38 GI50 for MDCK2 cells in absence of test compound; type: functional
[10] = Growth inhibition of MDCK2 cells expressing C-terminal GFP-fused human ABCG2 after 72 hrs by MTT assay; type: ADME, cell-based, Canis lupus familiaris, MDCK-II; settings: dog
[11] = biological target: ATP-dependent translocase ABCB1 (Homo sapiens, UniProt P08183); assay: Inhibition of ABCB1 in human A2780adr cells assessed as reduction in calcein AM levels preincubated for 30 mins followed by calcein AM addition measured immediately at 60 sec time interval for 60 mins by fluorescence assay; type: cell-based
[12] = Resistance factor, ratio of SN-38 GI50 for MDCK2 cells expressing C-terminal GFP-fused human ABCG2 in presence of 1 uM test compound to SN-38 GI50 for MDCK2 cells in absence of test compound; type: functional
ABCB1 = ABCB1 (Homo sapiens, UniProt P08183); assay: Inhibition of ABCB1 in human A2780adr cells assessed as reduction in calcein AM levels at 10 uM preincubated for 30 mins followed by calcein AM addition measured immediately at 60 sec time interval for 60 mins by fluorescence assay relative to control; type: cell-based; settings: probe calcein AM
ABCB1, sequence (P08183 whole entry): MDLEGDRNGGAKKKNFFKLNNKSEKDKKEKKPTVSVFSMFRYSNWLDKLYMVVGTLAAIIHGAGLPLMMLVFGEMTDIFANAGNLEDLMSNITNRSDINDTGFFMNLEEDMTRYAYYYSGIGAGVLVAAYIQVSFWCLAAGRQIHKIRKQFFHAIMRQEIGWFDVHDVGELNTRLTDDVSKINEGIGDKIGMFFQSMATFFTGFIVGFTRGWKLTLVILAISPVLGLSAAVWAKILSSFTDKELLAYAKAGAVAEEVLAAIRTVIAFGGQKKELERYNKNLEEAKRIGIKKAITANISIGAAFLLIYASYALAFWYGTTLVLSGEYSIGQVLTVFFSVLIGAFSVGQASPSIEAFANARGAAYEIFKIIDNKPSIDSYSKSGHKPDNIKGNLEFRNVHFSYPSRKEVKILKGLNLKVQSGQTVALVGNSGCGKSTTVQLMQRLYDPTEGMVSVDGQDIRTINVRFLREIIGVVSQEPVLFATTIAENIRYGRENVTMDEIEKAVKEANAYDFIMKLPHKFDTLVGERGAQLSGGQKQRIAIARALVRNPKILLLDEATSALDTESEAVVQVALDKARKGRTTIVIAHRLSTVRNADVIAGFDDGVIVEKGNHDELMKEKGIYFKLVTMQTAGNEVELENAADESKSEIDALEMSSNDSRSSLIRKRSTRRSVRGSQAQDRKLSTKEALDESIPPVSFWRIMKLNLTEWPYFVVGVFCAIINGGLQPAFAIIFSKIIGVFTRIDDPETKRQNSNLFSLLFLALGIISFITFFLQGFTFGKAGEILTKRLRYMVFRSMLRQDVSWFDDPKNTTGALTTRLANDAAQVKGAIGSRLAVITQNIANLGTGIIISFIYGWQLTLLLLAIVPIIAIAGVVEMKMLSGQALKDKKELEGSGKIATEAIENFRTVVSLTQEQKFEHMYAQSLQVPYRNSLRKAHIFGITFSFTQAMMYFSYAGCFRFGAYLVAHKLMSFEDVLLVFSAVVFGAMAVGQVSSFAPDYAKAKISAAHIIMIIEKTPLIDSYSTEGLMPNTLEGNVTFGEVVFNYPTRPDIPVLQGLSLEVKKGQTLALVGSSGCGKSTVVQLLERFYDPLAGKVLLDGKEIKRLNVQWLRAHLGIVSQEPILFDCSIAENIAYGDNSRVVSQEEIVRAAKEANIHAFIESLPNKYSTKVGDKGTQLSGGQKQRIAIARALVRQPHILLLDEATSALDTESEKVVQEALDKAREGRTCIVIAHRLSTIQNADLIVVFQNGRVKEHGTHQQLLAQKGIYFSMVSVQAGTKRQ

ATP-dependent translocase ABCB1, sequence (P08183 whole entry, the tested form may be a part): as the sequence (P08183 whole entry) above

| Compound | IC50 [6] [nM] | Emax at 2 h (ABCG2 [7]) [%] | also measured |
| --- | --- | --- | --- |
| COc1ccc(C(=O)Nc2ccccc2-c2nn[nH]n2)cc1 | – | – | inhibition (INH) [1]: Not Active |
| O=C(Nc1ccccc1-c1nnc(-c2ccccc2)o1)c1ccccc1 | 112 | 101 | RatioGI50 [2]: 2.61; selectivity ratio (ABCG2 [3]): 658; RatioGI50 [4]: 5.51; GI50 at 72 h [5]: 60800 nM; RatioGI50 [8]: 1.52; RatioGI50 [9]: 1.49; GI50 at 72 h [10]: 73700 nM |
| COc1ccc(-n2nnc(-c3ccccc3NC(=O)c3ccc(C(F)(F)F)cc3)n2)cc1 | – | – | inhibition (INH) [1]: Not Active |
| COc1ccc(C(=O)Nc2ccccc2-c2nnn(-c3ccc(OC)cc3)n2)cc1 | – | – | inhibition (INH) [1]: Not Active |
| COc1ccc(C(=O)Nc2ccccc2-c2nnn(-c3ccc(OC)nc3)n2)cc1 | 61.6 | 103 | RatioGI50 [2]: 2.64; selectivity ratio (ABCG2 [3]): 1270; RatioGI50 [4]: 4.49; GI50 at 72 h [5]: 80100 nM; IC50 [11]: 8550 nM; RatioGI50 [8]: 1.1; RatioGI50 [9]: 1.04; GI50 at 72 h [10]: 78000 nM |
| O=C(Nc1ccccc1-n1cc(-c2ccccc2)nn1)c1ccccc1 | 15300 | 100 | RatioGI50 [2]: 5.37; selectivity ratio (ABCG2 [3]): 33.1; GI50 at 72 h [5]: 452000 nM; RatioGI50 [12]: 1.63; IC50 [11]: 21200 nM; RatioGI50 [8]: 3.59; RatioGI50 [9]: 2.38; GI50 at 72 h [10]: 506000 nM |
| COc1ccc(C(=O)Nc2ccccc2-n2cc(-c3ccc(OC)cc3)nn2)cc1 | 2360 | 100 | – |
| COc1ccc(-n2nnc(-c3ccc(NC(=O)c4ccc(C(F)(F)F)cc4)cc3)n2)cc1 | 39800 | 100 | – |
| COc1ccc(-n2nnc(-c3cc(OC)ccc3NC(=O)c3ccc([N+](=O)[O-])cc3)n2)cc1 | 129 | 50 | – |
| COc1ccc(-n2nnc(-c3ccccc3NC(=O)C3CCCCC3)n2)cc1 | 565 | 95 | – |
| COc1ccc(-n2nnc(-c3cc(OC)ccc3NC(=O)c3ccc(C(F)(F)F)cc3)n2)cc1 | 77.4 | 96 | – |
| c1ccc(-c2ccccc2-c2nnn(-c3ccccc3)n2)cc1 | 8340 | 100 | – |
| O=C(Nc1ccccc1-c1nnn(-c2ccccc2)n1)C12CC3CC(CC(C3)C1)C2 | 1060 | 99 | inhibition at 1 h, 10 µM (ABCB1): 51%; IC50 [11]: 11000 nM |
| O=C(Nc1ccccc1-c1nn[nH]n1)c1ccccc1 | – | – | inhibition (INH) [1]: Not Active |
| COc1ccc(-c2nnc(-c3ccccc3NC(=O)c3ccc(C(F)(F)F)cc3)o2)cc1 | 90 | 47 | – |
| COc1ccc(-c2cn(-c3ccccc3NC(=O)c3ccc(C(F)(F)F)cc3)nn2)cc1 | 766 | 118 | – |
| COc1ccc(-n2nnc(-c3ccccc3NS(=O)(=O)c3ccc(OC)cc3)n2)cc1 | 7670 | 100 | – |
| COc1ccc(-n2nnc(-c3cccc(NC(=O)c4ccc(C(F)(F)F)cc4)c3)n2)cc1 | 18500 | 100 | – |
| COc1ccc(C(=O)Nc2ccccc2-c2nnc(-c3ccc(OC)cc3)o2)cc1 | 438 | 124 | RatioGI50 [2]: 5.07; selectivity ratio (ABCG2 [3]): 836; RatioGI50 [4]: 6.61; GI50 at 72 h [5]: 487000 nM; RatioGI50 [8]: 2.17; RatioGI50 [9]: 1.29; GI50 at 72 h [10]: 404000 nM |
| COc1ccc(-n2nnc(-c3ccccc3NC(=O)c3ccc(C(F)(F)F)cc3)n2)cn1 | 130 | 95 | – |
| COc1ccc(-n2nnc(-c3ccccc3NC(C)=O)n2)cc1 | 3230 | 100 | – |
| COc1ccc(-n2nnc(-c3ccccc3-n3nnc(-c4ccc(C(F)(F)F)cc4)n3)n2)cc1 | 15800 | 100 | – |

Now from value to compound, other results behind:

| IC50 [6] [nM] | Emax at 2 h (ABCG2 [7]) [%] | Compound | also measured |
| --- | --- | --- | --- |
| 267 | 78 | COc1ccc(-n2nnc(-c3ccccc3NC(=O)c3cccc4ccccc34)n2)cc1 | – |
| 228 | 82 | COc1ccc(-n2nnc(-c3ccccc3NC(=O)c3cnc4ccccc4c3)n2)cc1 | – |
| 259 | 123 | O=C(Nc1ccccc1-c1nnn(-c2ccccc2)n1)c1ccc2c(c1)OCO2 | – |
| 190 | 106 | O=C(Nc1ccccc1-c1nnn(-c2ccccc2)n1)c1ccc2c(c1)OCCO2 | – |
| 102 | 120 | COc1ccc(-n2nnc(-c3ccccc3NC(=O)c3ccccc3)n2)cn1 | – |
| 287 | 97 | O=C(Nc1ccccc1-c1nnn(-c2ccccc2)n1)c1ccncc1 | – |
| 176 | 51 | O=C(Nc1ccccc1-c1nnn(-c2ccccc2)n1)c1cnc2ccccc2c1 | – |
| 6910 | 100 | CC(=O)Nc1ccccc1-c1nnn(-c2ccccc2)n1 | – |
| 733 | 99 | O=C(Nc1ccccc1-c1nnn(-c2ccccc2)n1)c1ccccn1 | IC50 [11]: 5910 nM |
| 445 | 81 | O=C(Nc1ccccc1-c1nnn(-c2ccccc2)n1)c1cccnc1 | – |
| 430 | 85 | O=C(Nc1ccccc1-c1nnn(-c2ccccc2)n1)c1cccc2ccccc12 | – |
| 287 | 97 | O=C(Nc1ccccc1-c1nnn(-c2ccccc2)n1)C1CCCCC1 | – |
| 270 | 106 | O=C(Nc1ccccc1-c1nnn(-c2ccccc2)n1)c1cccs1 | – |
| 351 | 90 | COc1ccc(-n2nnc(-c3ccccc3NC(=O)c3cccs3)n2)cc1 | – |
